Source: US20210163424A1, “ECO-FRIENDLY MATERIALS AND METHODS FOR RENEWABLE AND SUSTAINABLE APPLICATIONS IN MATERIAL CHEMISTRY” (NDSU RESEARCH FOUNDATION, priority 2016, published 2021)

Experiments:
[1] = Ground state acidity (pKa) from α-plot of UV-Vis spectra at various pH; assay type: physicochemical
Description: (§1) Thus pKa* is most commonly calculated from the difference in the S1 excited state 0-0 transition of the acid (EHA) and the conjugate base (EA−)(2c). In order to determine the excited state acidity of the vanillin analogs, the ground state acidity was determined. An α-plot was made, by taking the UV-Vis spectra of ortho-vanillin at various pH using NaOH and HCl as the base and acid respectively (5c). Both iso-vanillin and vanillin ground state acidities were literature reported. After obtaining the ground state acidity the excited state acidity (pKa*) was investigated. Fluorescence, phosphorescence and luminescence spectra were measured in different solvents. It was determined that none of the vanillin analogs fluoresced appreciably and therefore were all poor photoacids. […] Various substituted Grignard reagents were used to reduce the carbonyl to a tertiary alcohol therefore eliminating the carbonyl functionality and hindering inter-system crossing (FIG. 32).
(§2) The ground state and excited state acidities were determined. […] Derivatives 1a and 1b were handled in a similar fashion.

[2] = Excited state acidity / photoacidity (pKa*) from Foster cycle; assay type: physicochemical
Source text: Investigations commenced determining the extent or existence of excited state proton transfer, photoacidity (pKa*), of vanillin and its analogs ortho-vanillin and iso-vanillin. From the Foster cycle, pKa* is mathematically defined by the following equation,
=pKa*+pKa+(EA−−EHA)/2.3RT.^1 (1)
as §1, §2

pKa [1]	pKa* [2]	Compound
9.8	9.6	COc1cc(C(C)O)ccc1O (stereo not drawn) [1a]
9.8	5.6	COc1ccc(C(C)O)cc1O (stereo not drawn) [1b]
8	4.9	COc1cccc(C(C)O)c1O (stereo not drawn) [1c]
